# In US11439607B2 (Paracelsus Neuroscience I, LLC, priority 2016, dated 2022):
# Where two headings read alike, the source gives them in different places.
# Experiments:
# Healthy rats [1] = assay: Healthy rats - Tail flick test; format: in vivo; details: Senicapoc 100 mg/kg PO, 240 min after treatment
# Protocol: (§1) Depending on the test, the percentage of activity was calculated from the mean value of the vehicle-treated animals and compared to naïve animals, control paw or cut-off value.
# Brennan model = Brennan model - Electronic Von Frey test; format: in vivo, rodent; details: Senicapoc 100 mg/kg PO, 240 min after treatment
# Protocol: as §1
# Healthy rats [2] = assay: Healthy rats - Paw pressure test; format: in vivo; details: Senicapoc 100 mg/kg PO, 240 min after treatment
# Protocol: as §1
# Rat primary microglia [3] = assay: Microglial IL-1β release (LPS priming, BzATP); format: cell-based
# Protocol: Rat primary microglia were primed with 3 EU/mL of ultra-pure Lipopolysaccharide (control standard endotoxin (CSE) Associates of Cape Cod, Falmouth, Mass.). […] Cell free supernatants were assayed for IL-1β using a custom rat cytokine assay (N451A-1; MesoScale Discovery, Rockville, Md.). IC50S were determined using Prism (Graphpad, San Diego, Calif.)
# (§2) After 24 hours, media was assayed for nitrite (stable metabolite of NO). […] Primary rat cortical microglia were also treated with LPS (3 EU/ml, 3 hours) to stimulate the production of pro-IL-1β.
# [4] = Plasma, brain and spinal cord exposure in CCI rats; format: in vivo, rat; details: for Kp at 4 h / concentration at 4 h: male, Sprague-Dawley, rat; for concentration at 4 h: po
# Protocol: Male Sprague-Dawley rats (Crl:SD, Charles River) weighing 200-350 g were dosed to determine tissue exposure at 10 mg/kg p.o. (n=3) for screening pharmacokinetics (PK), and at 10, 30 and 100 mg/kg p.o. for the CCI studies (n=3 from each treatment group taken from the last arm of study). […] The rats were then decapitated and trunk blood was collected to in K3EDTA containing tubes. Plasma samples were generated by centrifugation (3500×g), and stored frozen at −20° C. until bioanalysis. The brains were harvested immediately following blood collection and stored frozen until bioanalysis at −20° C. For CCI animals, the plasma and brain harvests as described for the screening PK, although the tissue collection was initiated after the behavioral assessment was completed, approximately 4 hours 15 minutes after dosing. For spinal column harvest, a 20-gauge needle on a 10 ml syringe filled with cold saline was inserted into the spinal cord. The saline was used to flush the spinal column out. The spinal column tissues were then stored frozen at −20° C. prior to exposure measurements.
# Prior to analysis, the brain and spinal cord samples were thawed at room temperature, weighed and homogenized using a homogenizing solution (IPA/H2O/DMSO; 30:50:20) at a ratio of 3/1 (ml/g) to generate tissue homogenates. An aliquot of 50 μl plasma, or 50 μl brain and spinal cord homogenates is mixed with 150 μl of a DMSO/ACN (20:80) solution that contains an internal standard (50 ng/ml). The diluted plasma, brain and spinal cord sample is then centrifuged (˜500 g for 15 min at 10° C.), supernatant is removed and then injected (10 μl) onto LC/MS/MS system for analysis. An Atlantis T3 column 2.6μ C18, 50×2.1 mm (Waters, Mass.) was used for analytical separation of the acid. A 6-minute mobile phase gradient was employed with mobile phase A (0.1% formic acid in water) ramping down from 99% to 1% (0-4 minutes), and then ramping back up to 99% (4-6 minutes), while ramping up solvent B (1% formic acid in ACN), from 1% to 99% (0-4 minutes), and then ramping down to 1% (4-6 minutes). Spectra was acquired in positive SRM mode with the parent mass of 324 and a daughter ion of 228.
# [5] = rats, post dose; cited from earlier work
# [6] = Plasma and brain free fraction by equilibrium dialysis; format: in vitro ADME, rat; set-up: dose or concentration left out as unconfirmed
# Protocol: Briefly, naive plasma and brain tissues were homogenized in 3× and 4× w/v in homogenization buffer (50:30:20 H2O:IPA:DMS0), respectively. […] Following equilibration, the buffer sample was fortified with a fixed volume of blank tissue homogenate and the tissue sample was fortified with a fixed volume of buffer. Protein precipitation was performed with ice cold acetonitrile in the presence of an analytical internal standard. The supernatants were quantified for senicapoc using LC-MS/MS as described earlier.
# Rat primary microglia [7] = assay: Microglial NO release (measurement of nitrite) after LPS; format: cell-based; details: 24 hours
# Protocol: Next, 3 EU/ml of ultra-pure Lipopolysaccharide (CSE, Associates of Cape Cod) was added to induce iNOS expression and NO synthesis. After a total incubation time of 24 hours, media was collected, spun down to remove cells and assayed for nitrite (the stable breakdown product of NO) using Griess Reagent (Promega, Madison Wis.).
# as §2
# KCa3.1 = target: T1, KCa3.1 (Rattus norvegicus, UniProt Q9QYW1); assay: Whole cell patch clamp of K+ currents in rat primary microglia; format: cell-based; details: read-out: IC50, inhibition of microglial K+ current
# T1 construct: K^+ currents were recorded from primary microglia; endogenous in cells; host or cells: primary rat (cortical) microglia
# Protocol: Primary rat microglia were plated at a density of 300,000/35 mm dish for 24 hours. Whole cell patch clamp recordings were performed using an EPC9 patch-clamp amplifier and PatchMaster software (HEKA Instruments Inc.). The cell's membrane potential was held at −60 mV. External solution contained (in mM): 140 NaCl, 4 KCl, […], 1.8 CaCl2, 10 HEPES, 10 Glucose, pH 7.4. Patch solution contained (in mM): 140 […], 11 EGTA, 2 MgCl2, 10 HEPES, pH 7.2. Drugs were applied by gravity and selected with a capillary tube placed in close proximity to the recording dish. BzATP (Sigma-Aldrich, St. Louis, Mo.) was applied for 10 seconds.
# KCa3.1 is highly expressed on microglia in vitro (Kaushal et al., 2007). […] Some residual K^+ current still remained which was most likely not KCa3.1-sensitive (Kettenmann et al., 2011)
smiles,measurement,setting,value
NC(=O)C(c1ccccc1)(c1ccc(F)cc1)c1ccc(F)cc1 [Senicapoc],% of activity vs. vehicle,Healthy rats [1],9%
same,% of activity vs. vehicle,Brennan model,−7%
same,% of activity vs. vehicle,Healthy rats [2],−12%
same,IC50,"Rat primary microglia [3]; FIG. 2B legend, LPS 3EU/ml 24 hours, n=3, read-out: IC50, inhibition of IL-1β release from primary microglia (FIG. 2B legend)",1.3 nM
same,IC50,"Rat primary microglia [3]; LPS 3 EU/ml priming, BzATP 1 mM, read-out: IC50, inhibition of IL-1β release from primary microglia",15 nM
same,Spinal Cord,"[4]; 10 mg/kg PO, 4 h, LLQ 773 nM",<LLQ^γ
same,Plasma,"[4]; 10 mg/kg PO, 4 h, n = 1 (2 samples <LLQ 773 nM)",782^£ nM
same,Free Plasma,"[4]; 10 mg/kg PO, 4 h, n = 1, UBP = 0.027",21^£ nM
same,Kp at 4 h,"[4]; brain, 10 mg/kg PO, read-out: Free Brain/Free Plasma",1.1 ± 0.1
same,Kp at 4 h,"[4]; brain, 30 mg/kg PO, read-out: Free Brain/Free Plasma",0.9 ± 0.1
same,Kp at 4 h,"[4]; brain, 100 mg/kg PO, read-out: Free Brain/Free Plasma",1 ± 0.2
same,concentration at 4 h,"[4]; brain, 10 mg/kg, 10 mg/kg PO, UBBr = 0.008, read-out: Free Brain",22 ± 1 nM
same,concentration at 4 h,"[4]; brain, 10 mg/kg, 10 mg/kg PO, mean ± SD, read-out: Brain",2770 ± 380 nM
same,concentration at 4 h,"[4]; brain, 30 mg/kg, 30 mg/kg PO, UBBr = 0.008, read-out: Free Brain",51 ± 16 nM
same,concentration at 4 h,"[4]; brain, 30 mg/kg, 30 mg/kg PO, mean ± SD, read-out: Brain",6420 ± 1960 nM
same,concentration at 4 h,"[4]; brain, 100 mg/kg, 100 mg/kg PO, UBBr = 0.008, read-out: Free Brain",106 ± 21 nM
same,concentration at 4 h,"[4]; brain, 100 mg/kg, 100 mg/kg PO, mean ± SD, read-out: Brain",13300 ± 2620 nM
same,concentration at 4 h,"[4]; plasma, 30 mg/kg, 30 mg/kg PO, UBP = 0.027, read-out: Free Plasma",56 ± 12 nM
same,concentration at 4 h,"[4]; plasma, 30 mg/kg, 30 mg/kg PO, mean ± SD, read-out: Plasma",2060 ± 452 nM
same,concentration at 4 h,"[4]; plasma, 100 mg/kg, 100 mg/kg PO, UBP = 0.027, read-out: Free Plasma",103 ± 3 nM
same,concentration at 4 h,"[4]; plasma, 100 mg/kg, 100 mg/kg PO, mean ± SD, read-out: Plasma",3800 ± 93 nM
same,Kp at 4 h,"[4]; spinal cord, 30 mg/kg PO, read-out: Free Spinal Cord/Free Plasma",0.8 ± 0.6
same,Kp at 4 h,"[4]; spinal cord, 100 mg/kg PO, read-out: Free Spinal Cord/Free Plasma",0.7 ± 0.3
same,concentration at 4 h,"[4]; spinal cord, 30 mg/kg, 30 mg/kg PO, brain free fraction 0.008 used, read-out: Free Spinal Cord",38 ± 17 nM
same,concentration at 4 h,"[4]; spinal cord, 30 mg/kg, 30 mg/kg PO, mean ± SD, read-out: Spinal Cord",3400 ± 2740 nM
same,concentration at 4 h,"[4]; spinal cord, 100 mg/kg, 100 mg/kg PO, brain free fraction 0.008 used, read-out: Free Spinal Cord",95 ± 17 nM
same,concentration at 4 h,"[4]; spinal cord, 100 mg/kg, 100 mg/kg PO, mean ± SD, read-out: Spinal Cord",11900 ± 2180 nM
same,Tmax (time of maximum plasma concentration),[5],4 h
same,fraction unbound at 2.5 h,"[6]; brain homogenate (4x w/v in homogenization buffer), rat brain homogenate, read-out: In vitro rat brain free fraction (UBBr)",0.008
same,fraction unbound at 2.5 h,"[6]; plasma (diluted 3x w/v in homogenization buffer), rat plasma, read-out: In vitro rat plasma free fraction (UBP)",0.027
same,EC50,"Rat primary microglia [7]; FIG. 2A legend, LPS 3EU/ml, n=3, read-out: EC50, inhibition of NO production (nitrite), representative experiment",0.9 nM
same,IC50,"Rat primary microglia [7]; LPS 3 EU/ml, nitrite, read-out: IC50, inhibition of NO release from LPS-treated microglia (average)",39 nM
same,IC50,KCa3.1,10 nM
